ChEMBL document CHEMBL1201862, “PubChem BioAssay data set” (2004)
Active and inactive are the calls of the source.

Legend:
[1] = A cytotoxicity screen of small molecule inhibitors of the PhoP region in Salmonella typhi identified in the primary screen. [Related pubchem assays: 1850, 1864, 1985 ]; format: functional
[2] = target: T1, Streptokinase A (Streptococcus pyogenes serotype M1, UniProt P10520); assay: viability-normalized secreted streptokinase activity reduction – plasminogen activation absorbance, OD405, dose response (AID 1914); format: functional, Streptococcus pyogenes M1 GAS;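 further: secreted streptokinase activity via plasminogen activation per viability signal from cell pellet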
T1 sequence (P10520 whole entry): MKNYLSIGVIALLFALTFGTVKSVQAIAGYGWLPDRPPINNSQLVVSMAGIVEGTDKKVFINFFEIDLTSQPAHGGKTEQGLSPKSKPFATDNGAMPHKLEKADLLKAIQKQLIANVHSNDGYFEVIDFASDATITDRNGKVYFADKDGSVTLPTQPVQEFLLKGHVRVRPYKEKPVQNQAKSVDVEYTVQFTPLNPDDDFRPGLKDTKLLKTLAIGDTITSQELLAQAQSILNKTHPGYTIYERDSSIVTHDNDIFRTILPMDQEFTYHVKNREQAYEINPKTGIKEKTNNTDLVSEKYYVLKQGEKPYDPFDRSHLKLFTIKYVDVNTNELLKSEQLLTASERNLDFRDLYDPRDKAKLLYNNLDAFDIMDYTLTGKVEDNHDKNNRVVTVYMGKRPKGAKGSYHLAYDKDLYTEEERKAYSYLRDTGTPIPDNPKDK

[3] = target: T2, X-box-binding protein 1 (Homo sapiens, UniProt P17861); format: functional, Cricetulus griseus;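 further: confirmatory dose-response counter-screen serving a CHOP assay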
T2 sequence (P17861 whole entry): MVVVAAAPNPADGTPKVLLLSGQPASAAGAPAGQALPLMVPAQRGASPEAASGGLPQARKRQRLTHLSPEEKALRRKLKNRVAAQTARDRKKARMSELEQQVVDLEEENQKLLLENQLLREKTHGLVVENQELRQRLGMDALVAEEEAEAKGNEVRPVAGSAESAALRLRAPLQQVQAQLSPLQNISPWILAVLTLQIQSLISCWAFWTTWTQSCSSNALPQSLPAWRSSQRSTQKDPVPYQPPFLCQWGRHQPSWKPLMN

[4] = test system: Streptococcus; assay: GAS UMAA2166 growth inhibition – luminescence, BacTiterGlo, counter-screen for streptokinase expression inhibitor project, dose response (AID 1915); format: functional, organism-based;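 further: potency for reduction of bacterial viability or growth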
[5] = test system: Streptococcus sp. 'group A'; assay: Streptococcus pyogenes SK(-)GAS viability under kanamycin – luminescence, BacTiterGlo, confirmation, counter-screen for streptokinase expression inhibitor project, dose response (AID 1900); format: functional, organism-based
[6] = target: T3, Acyl-homoserine lactone acylase PvdQ (Pseudomonas aeruginosa (strain LESB58), UniProt Q9I194); assay: PvdQ acylase enzyme activity blockers – biochemical, fluorescence, plate reader and imaging, cherry-picks, dose response (AID 493231)
T3 sequence (Q9I194 whole entry): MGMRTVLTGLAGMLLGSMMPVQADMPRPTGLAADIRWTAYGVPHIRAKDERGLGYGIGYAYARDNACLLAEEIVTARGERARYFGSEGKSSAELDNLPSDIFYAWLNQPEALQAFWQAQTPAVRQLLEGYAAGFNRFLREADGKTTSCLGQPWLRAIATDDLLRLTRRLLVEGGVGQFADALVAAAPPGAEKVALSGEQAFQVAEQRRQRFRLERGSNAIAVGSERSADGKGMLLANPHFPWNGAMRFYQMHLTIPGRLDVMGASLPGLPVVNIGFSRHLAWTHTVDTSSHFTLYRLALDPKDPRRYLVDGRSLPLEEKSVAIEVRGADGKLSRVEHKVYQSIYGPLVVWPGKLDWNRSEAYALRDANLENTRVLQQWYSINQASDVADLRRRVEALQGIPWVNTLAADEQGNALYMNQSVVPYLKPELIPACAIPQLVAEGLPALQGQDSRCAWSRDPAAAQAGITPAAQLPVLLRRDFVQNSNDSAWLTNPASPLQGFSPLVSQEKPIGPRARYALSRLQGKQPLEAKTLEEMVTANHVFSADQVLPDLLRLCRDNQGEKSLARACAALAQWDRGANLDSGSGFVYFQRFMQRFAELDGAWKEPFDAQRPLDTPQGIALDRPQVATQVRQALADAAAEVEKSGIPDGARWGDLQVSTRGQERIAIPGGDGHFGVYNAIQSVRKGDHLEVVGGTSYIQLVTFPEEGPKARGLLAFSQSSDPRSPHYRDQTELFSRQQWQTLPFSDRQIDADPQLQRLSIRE

[7] = target: DNA dC->dU-editing enzyme APOBEC-3G (Homo sapiens, UniProt Q9HC16); assay: Dose Response confirmation of small molecule APOBEC3G DNA Deaminase Inhibitors via a fluorescence-based single-stranded DNA deaminase assay. [Related pubchem assays (depositor defined):AID493012, AID493028]; format: functional
Chain of DNA dC->dU-editing enzyme APOBEC-3G (Q9HC16 whole entry): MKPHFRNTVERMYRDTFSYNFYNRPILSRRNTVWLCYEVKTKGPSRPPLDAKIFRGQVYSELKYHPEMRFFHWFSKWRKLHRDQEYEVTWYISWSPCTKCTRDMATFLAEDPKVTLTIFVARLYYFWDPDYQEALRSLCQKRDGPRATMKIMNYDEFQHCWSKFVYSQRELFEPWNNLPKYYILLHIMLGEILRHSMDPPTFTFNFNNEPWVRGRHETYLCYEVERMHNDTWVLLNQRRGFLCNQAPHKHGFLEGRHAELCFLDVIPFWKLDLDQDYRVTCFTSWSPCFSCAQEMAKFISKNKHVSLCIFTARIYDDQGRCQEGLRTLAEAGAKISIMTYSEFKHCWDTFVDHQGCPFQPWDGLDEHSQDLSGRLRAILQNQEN

[8] = target: T4, SUMO-activating enzyme (Homo sapiens, UniProt Q9UBT2); assay: blockers of SAE1/SAE2–UBC9 SUMO transfer – biochemical, HTRF, uHTS, primary screen (AID 2006); format: protein-complex assay
T4 sequence (Q9UBE0 whole entry): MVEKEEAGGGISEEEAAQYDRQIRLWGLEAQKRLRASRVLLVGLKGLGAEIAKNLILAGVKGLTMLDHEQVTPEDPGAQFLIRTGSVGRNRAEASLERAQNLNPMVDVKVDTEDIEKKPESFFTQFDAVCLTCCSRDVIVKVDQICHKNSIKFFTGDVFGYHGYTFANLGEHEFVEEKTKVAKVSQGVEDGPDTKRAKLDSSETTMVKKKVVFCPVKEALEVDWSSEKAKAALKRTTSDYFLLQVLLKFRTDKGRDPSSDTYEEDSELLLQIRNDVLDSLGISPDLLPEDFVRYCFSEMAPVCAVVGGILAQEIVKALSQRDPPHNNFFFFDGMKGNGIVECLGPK
T4 sequence (Q9UBT2 whole entry): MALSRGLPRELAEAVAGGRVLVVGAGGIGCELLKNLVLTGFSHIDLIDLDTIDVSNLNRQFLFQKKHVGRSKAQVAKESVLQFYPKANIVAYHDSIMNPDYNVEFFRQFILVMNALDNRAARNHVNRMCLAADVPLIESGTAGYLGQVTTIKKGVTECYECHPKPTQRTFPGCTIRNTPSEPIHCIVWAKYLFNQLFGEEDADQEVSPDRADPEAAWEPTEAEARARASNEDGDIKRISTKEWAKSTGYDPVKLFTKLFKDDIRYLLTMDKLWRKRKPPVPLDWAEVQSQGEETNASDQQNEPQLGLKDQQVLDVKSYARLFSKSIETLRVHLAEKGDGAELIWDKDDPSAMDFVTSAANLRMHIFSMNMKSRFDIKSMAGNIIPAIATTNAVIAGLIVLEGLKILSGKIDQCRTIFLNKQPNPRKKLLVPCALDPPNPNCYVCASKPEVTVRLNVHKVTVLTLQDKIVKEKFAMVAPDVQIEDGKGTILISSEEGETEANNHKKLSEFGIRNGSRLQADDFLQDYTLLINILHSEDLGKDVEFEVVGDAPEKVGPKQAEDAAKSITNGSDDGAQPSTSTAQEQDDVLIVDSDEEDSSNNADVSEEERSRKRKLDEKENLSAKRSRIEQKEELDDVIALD

[9] = target: T4, SUMO-activating enzyme; assay: blockers of UBC9-mediated SUMO conjugation – biochemical, AlphaScreen, SUMOylation inhibitor project, confirmation (AID 2018); format: functional
[10] = target: Induced myeloid leukemia cell differentiation protein Mcl-1 (Homo sapiens, UniProt Q07820); format: functional
Chain of Induced myeloid leukemia cell differentiation protein Mcl-1 (Q07820 whole entry): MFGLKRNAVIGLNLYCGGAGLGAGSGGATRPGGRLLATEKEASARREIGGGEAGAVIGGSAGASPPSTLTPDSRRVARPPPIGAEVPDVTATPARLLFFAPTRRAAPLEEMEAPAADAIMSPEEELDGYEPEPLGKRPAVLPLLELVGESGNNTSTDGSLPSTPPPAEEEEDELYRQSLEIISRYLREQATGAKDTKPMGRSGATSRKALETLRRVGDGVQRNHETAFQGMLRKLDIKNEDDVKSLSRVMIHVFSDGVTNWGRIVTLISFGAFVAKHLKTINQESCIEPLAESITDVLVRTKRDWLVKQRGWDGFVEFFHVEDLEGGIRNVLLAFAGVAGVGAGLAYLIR

[11] = target: Procathepsin L (Homo sapiens, UniProt P07711)
Chain of Procathepsin L (P07711 whole entry): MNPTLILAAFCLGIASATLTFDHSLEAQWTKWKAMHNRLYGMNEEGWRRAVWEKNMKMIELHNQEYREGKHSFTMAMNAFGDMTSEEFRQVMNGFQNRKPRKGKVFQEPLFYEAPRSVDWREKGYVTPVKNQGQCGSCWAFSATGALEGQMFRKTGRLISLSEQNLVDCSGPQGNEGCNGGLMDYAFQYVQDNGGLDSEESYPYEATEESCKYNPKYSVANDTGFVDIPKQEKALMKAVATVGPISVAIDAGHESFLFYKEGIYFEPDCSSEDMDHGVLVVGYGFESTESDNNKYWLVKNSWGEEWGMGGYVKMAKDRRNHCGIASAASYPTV

[12] = target: T5, Aspartyl aminopeptidase (Plasmodium falciparum 3D7, UniProt Q8I2J3)
T5 sequence (Q8I2J3 whole entry): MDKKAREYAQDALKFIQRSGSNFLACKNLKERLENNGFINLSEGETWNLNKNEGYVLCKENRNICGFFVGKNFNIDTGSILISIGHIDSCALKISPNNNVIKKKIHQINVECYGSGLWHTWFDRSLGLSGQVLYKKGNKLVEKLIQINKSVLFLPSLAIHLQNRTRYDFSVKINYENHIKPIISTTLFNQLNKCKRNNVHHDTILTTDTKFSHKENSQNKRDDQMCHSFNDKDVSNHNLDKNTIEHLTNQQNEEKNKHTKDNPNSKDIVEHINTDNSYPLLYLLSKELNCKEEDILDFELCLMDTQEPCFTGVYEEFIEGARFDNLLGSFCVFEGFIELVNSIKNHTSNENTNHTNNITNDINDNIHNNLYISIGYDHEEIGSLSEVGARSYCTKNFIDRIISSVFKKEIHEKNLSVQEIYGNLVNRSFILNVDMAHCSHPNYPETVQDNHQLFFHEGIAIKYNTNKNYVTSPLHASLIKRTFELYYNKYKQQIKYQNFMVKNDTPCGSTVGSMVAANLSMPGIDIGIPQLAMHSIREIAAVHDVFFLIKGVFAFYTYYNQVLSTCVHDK

[13] = target: Trypsin (Sus scrofa, UniProt P00761); assay: trypsin protease activity blockade – biochemical, quenched peptide fluorescence, cherry-pick, selectivity assay for Rce1 protease inhibitor project, dose response (AID 488789)
Chain of Trypsin (P00761 whole entry): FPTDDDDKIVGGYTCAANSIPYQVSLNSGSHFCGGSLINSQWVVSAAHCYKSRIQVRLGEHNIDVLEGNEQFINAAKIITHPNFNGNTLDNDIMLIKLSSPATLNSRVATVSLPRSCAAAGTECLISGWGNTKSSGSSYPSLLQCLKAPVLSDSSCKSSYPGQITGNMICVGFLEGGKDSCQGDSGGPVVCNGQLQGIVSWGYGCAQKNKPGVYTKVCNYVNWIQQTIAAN

[14] = target: Luciferin 4-monooxygenase (Photinus pyralis, UniProt P08659); assay: Counter Screen for Luciferase-based Assay Positives. [Related pubchem assays: 620, 618, 411 ]
Chain of Luciferin 4-monooxygenase (P08659 whole entry): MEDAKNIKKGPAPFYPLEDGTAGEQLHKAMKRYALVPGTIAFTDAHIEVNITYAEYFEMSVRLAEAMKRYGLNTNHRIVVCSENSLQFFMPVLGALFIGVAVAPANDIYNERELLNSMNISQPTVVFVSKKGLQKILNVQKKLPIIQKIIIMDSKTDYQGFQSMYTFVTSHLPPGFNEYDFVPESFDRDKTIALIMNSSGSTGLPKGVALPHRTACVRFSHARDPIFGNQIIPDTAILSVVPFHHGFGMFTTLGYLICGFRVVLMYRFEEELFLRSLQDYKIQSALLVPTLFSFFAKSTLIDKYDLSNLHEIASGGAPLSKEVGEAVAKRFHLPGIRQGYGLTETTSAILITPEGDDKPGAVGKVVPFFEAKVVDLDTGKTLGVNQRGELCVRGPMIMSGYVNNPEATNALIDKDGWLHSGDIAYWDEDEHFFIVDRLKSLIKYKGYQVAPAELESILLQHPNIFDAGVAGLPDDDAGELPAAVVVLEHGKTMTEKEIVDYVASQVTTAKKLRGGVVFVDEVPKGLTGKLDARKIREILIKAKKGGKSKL

[15] = target: Heat shock protein HSP 90-alpha (Homo sapiens, UniProt P07900); assay: Luminescence-based dose response biochemical high throughput screening assay for inhibitors of the Heat Shock Protein 90 (HSP90). [Related pubchem assays: 1831 (Summary AID.), 1846 (Confirmation screen.), 1789 (Primary screen.)]
[16] = alpha-synuclein stem-loop luciferase translation blockers – H4 neuroglioma cells, luminescence, confirmation (AID 1988); format: functional, cell-based
[17] = Luminescence Cell-Based Dose Response HTS to Identify Inhibitors of 5'UTR Stem-Loop Driven Prion Protein mRNA Translation in H4 Neuroglioblastoma Cells. [Related pubchem assays: 1827 (Project Summary), 1813 (Primary HTS)]; format: functional
[18] = luciferase reporter signal suppression in cells – H4 neuroglioma cells, luminescence, dose response (AID 1990); format: functional, cell-based
[19] = target: T6, RNA-binding protein pos-1 (Caenorhabditis elegans, UniProt G5EF15); assay: disruptors of C. elegans POS-1 RNA interaction – biochemical, fluorescence polarization, dose response (AID 1964);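 further: purified POS-1 fused to maltose binding protein made in E. coli; potency of compounds blocking POS-1 binding to fluorescent RNA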
T6 sequence (G5EF15 whole entry): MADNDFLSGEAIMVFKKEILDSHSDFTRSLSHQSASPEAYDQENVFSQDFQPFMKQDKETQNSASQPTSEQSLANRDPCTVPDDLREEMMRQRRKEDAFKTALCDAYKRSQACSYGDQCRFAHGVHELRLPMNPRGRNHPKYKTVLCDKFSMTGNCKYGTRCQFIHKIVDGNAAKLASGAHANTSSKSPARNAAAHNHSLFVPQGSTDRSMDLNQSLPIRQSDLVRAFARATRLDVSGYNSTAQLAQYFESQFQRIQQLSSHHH

[20] = target: T7, Zinc finger protein mex-5 (Caenorhabditis elegans, UniProt Q9XUB2); assay: potency of MEX-5 RNA-binding blockers – biochemical, C. elegans, fluorescence polarization, dose response (AID 1960)
T7 sequence (Q9XUB2 whole entry): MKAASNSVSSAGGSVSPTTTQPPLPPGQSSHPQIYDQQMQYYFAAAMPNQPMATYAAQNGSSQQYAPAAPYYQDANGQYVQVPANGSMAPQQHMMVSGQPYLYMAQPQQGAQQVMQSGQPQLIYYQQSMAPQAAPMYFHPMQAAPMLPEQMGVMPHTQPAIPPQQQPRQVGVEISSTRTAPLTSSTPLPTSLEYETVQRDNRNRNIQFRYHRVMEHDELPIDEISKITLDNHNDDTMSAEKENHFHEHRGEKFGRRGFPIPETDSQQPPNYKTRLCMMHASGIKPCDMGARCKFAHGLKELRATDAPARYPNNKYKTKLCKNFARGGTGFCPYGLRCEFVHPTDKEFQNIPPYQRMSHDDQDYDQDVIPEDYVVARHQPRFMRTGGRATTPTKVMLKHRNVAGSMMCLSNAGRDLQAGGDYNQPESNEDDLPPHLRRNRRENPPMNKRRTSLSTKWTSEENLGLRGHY

[21] = HEK-293T cell viability reduction – luminescence, B-cell screen hits, cytotoxicity control for BCR NF-kB inhibitor project, dose response (AID 489021); format: functional, cell-based;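 further: HEK-293T cells carrying an NF-kB luciferase reporter; cells exposed to compound for about 14 hours before viability readout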
[22] = target: Glyceraldehyde-3-phosphate dehydrogenase (Homo sapiens, UniProt P04406)
Chain of Glyceraldehyde-3-phosphate dehydrogenase (P04406 whole entry): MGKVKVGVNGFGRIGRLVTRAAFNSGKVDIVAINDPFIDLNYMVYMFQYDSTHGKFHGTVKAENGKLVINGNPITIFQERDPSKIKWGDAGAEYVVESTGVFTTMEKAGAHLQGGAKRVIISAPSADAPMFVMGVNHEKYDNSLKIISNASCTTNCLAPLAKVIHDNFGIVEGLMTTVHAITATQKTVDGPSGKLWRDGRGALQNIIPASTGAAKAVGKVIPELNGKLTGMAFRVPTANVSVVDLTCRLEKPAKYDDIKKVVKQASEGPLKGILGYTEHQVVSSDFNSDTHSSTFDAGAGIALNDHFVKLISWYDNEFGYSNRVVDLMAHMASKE

[23] = test system: HT-1080; assay: HT1080 cell viability loss – fluorescence readout (AID 620); format: functional, cell-based; details: Homo sapiens
[24] = target: Cytochrome P450 2D6 (Homo sapiens, UniProt P10635);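 further: CYP2D6 member of a cytochrome P450 panel assay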
Chain of Cytochrome P450 2D6 (P10635 whole entry): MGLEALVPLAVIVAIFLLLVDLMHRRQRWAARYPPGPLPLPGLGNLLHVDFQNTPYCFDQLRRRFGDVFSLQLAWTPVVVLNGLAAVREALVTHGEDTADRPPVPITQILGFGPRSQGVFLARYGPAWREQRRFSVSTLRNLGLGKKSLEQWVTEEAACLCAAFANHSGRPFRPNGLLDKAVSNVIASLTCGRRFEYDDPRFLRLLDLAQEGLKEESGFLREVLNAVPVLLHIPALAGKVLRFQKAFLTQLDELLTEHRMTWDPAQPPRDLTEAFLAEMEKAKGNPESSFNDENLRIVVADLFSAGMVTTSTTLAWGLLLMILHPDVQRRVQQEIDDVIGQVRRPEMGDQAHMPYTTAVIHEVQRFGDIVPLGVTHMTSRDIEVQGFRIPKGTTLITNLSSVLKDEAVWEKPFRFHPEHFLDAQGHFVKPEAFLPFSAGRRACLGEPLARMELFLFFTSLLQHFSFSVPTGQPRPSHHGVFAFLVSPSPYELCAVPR

[25] = target: Cytochrome P450 2C19 (Homo sapiens, UniProt P33261); assay: Cytochrome panel assay with activity outcomes. Panel member name: p450-cyp2c19 Compounds with AC50 equal or less than 10 uM are considered active; format: functional; details: read-out: AC50
Chain of Cytochrome P450 2C19 (P33261 whole entry): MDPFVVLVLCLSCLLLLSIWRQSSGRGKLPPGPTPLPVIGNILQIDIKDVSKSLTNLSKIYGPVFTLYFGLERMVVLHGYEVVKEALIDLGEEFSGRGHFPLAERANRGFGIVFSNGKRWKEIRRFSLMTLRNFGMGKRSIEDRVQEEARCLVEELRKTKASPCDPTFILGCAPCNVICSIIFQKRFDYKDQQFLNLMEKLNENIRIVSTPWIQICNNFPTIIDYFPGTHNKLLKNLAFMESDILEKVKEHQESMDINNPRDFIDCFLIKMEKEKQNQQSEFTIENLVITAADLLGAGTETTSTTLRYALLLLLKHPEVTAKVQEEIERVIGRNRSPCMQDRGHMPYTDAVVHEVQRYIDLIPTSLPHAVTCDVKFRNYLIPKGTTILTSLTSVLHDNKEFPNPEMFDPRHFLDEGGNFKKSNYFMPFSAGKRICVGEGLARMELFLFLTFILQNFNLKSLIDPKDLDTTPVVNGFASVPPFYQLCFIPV

## Cc1ccc(OCCCCn2c(CO)nc3ccccc32)cc1
[1]
  EC50: > 50 µM (active)

## CCOC(=O)c1ccc(S(=O)(=O)N2CCN(CCC#N)CC2)cc1
[1]
  EC50: > 50 µM (active)

## CCc1nc2c(cnn2-c2ccc(Cl)cc2)c(=O)n1-c1ccc(OC)cc1
[2]
  EC50: > 150 µM (not active)
[3]
  Absolute IC50 (XBP1): 10 µM
[4]
  EC50: > 150 µM (not active)
[5]
  EC50: 28.3 µM (active)

## Cc1cc(S(=O)(=O)NCC2CC2)c(Cl)cc1Cl
[6]
  AC50: 1.1 µM (active)

## COc1ccc(-c2ccc(OC)cc2)cc1
[6]
  AC50: 78.8 µM (active)

## CCOC(=O)c1c(NC(=O)c2ccccc2Cl)sc2c1CCc1ccccc1-2
[7]
  IC50: > 100 µM (inactive)

## FC(F)C(F)(F)C(F)(F)C(F)(F)c1cc(-c2ccccc2)[nH]n1
[3]
  Absolute IC50 (XBP1): 10 µM

## N=C1S/C(=C\c2ccco2)C(=O)N1c1ccc2c(c1)OCO2
[8]
  IC50: 39.9 µM (active)
[9]
  IC50: 13.4 µM (active)
[10]
  IC50: 9.96 µM (active)

## COc1ccc(N2C(=O)/C(=C\Nn3cnnc3)c3ccccc3C2=O)cc1
[11]
  IC50: > 59.6 µM (not active)
[12]
  IC50: 1.56 µM (active)

## COc1ccc(S(=O)(=O)NCC2CCCO2)cc1NC(=O)c1ccccc1F (centres undefined)
[13]
  AC50: 33 µM (active)

## O=c1c2ccccc2[nH]c2ccc(F)cc12
[1]
  EC50: > 50 µM (active)

## O=C(Nc1cc(Cl)ccc1Cl)Nn1cnnc1
[11]
  IC50: > 59.6 µM (not active)
[12]
  IC50: 0.5 µM (active)

## S=C(Nc1cc(Cl)ccc1Cl)Nn1cnnc1
[11]
  IC50: > 59.6 µM (not active)
[12]
  IC50: 0.662 µM (active)

## CCN(CC)c1ccc2cc(NC(=O)CCC(=O)O)c(=O)oc2c1
[14]
  EC50: > 100 µM (not active)
[15]
  IC50: > 60 µM (not active)
[16]
  EC50: 0.491 µM (active)
[17]
  EC50: 3.7 µM (active)
[18]
  EC50: < 0.1 µM (active)
[19]
  EC50: 120 µM (inconclusive)
[20]
  EC50: 7.36 µM (active)
[21]
  IC50: > 80 µM (inactive)
[22]
  IC50: > 100 µM (not active)
[23]
  EC50: > 50 µM (not active)

## COc1ccc(/C=C/C(=O)c2ccoc2)cc1
[24]
  AC50: 25.1 µM (inconclusive)
[25]
  AC50: 14.1 µM (inconclusive)
[6]
  AC50: 11.4 µM (active)
